“Also recorded” adds a separate entry of the source. Read-outs that look alike come from different tables or passages of the source.
Columns and labels:
[1] = target: recombinant P. falciparum PMX (Plasmodium falciparum, UniProt Q8IAS0); test: Recombinant P. falciparum PMX inhibition assay (fluorogenic substrate Rh2N); assay type: biochemical
Method: The fluorescence of this peptide is quenched by the spatial proximity of the DABCYL/EDANS groups in the uncleaved peptide and is increased upon cleavage at the internal F–I bond. […] Control wells contained no inhibitor, and the plate was blanked against the substrate only in DB. […] All experiments were performed in duplicate.

PMIV = PMIV (Plasmodium falciparum, UniProt Q8IM16); test: FRET-based PMIV inhibition assay; assay type: biochemical, P. falciparum
Method: (§1) A fluorescence resonance energy transfer (FRET)-based assay was performed to assess the ability of the compounds to inhibit PMIV, CatD, and BACE1. Serial dilutions of test compounds were dispensed in a white 96-well plate. […] The mixture was incubated for 20 min at 37 °C. […] IC50 values were calculated with GraphPad Prism 8.0 using the nonlinear regression, variable slope (four parameters). Compounds were tested in triplicate.

cathepsin D (CatD) = cathepsin D (CatD) (Homo sapiens, UniProt P07339); test: FRET-based CatD inhibition assay (selectivity counter screen); assay type: biochemical
Method: as §1

BACE1 = BACE1 (Homo sapiens, UniProt P56817); test: FRET-based BACE1 inhibition assay (selectivity counter screen); assay type: biochemical
Method: as §1

[2] = Liver microsomal metabolic stability; assay type: in vitro ADME, mouse; conditions: pooled liver microsomes, pH 7.4, mouse liver microsomes, 5 μM; for microsomal CLint at 1 h, 5 μM: read-out: microsomal stability CL(int)
Method: Microsomal stability assays are performed as described elsewhere.[41] Test compounds and pooled mouse liver microsomes are incubated in potassium phosphate buffer in the presence of the cofactor NADPH at 37 °C. Reaction mixtures (700 μL) contain a final concentration of 5 μM test compound, 0.05% DMSO, 0.5 mg/mL microsomes, and ∼0.7–0.9 mM NADPH in 100 mM potassium phosphate buffer at pH 7.4. Reactions are terminated by the addition of 100 μL of the reaction mixture to 900 μL of acetonitrile after 0, 5, 15, 30, 45, and 60 min of incubation. Samples were centrifuged, and the resultant supernatant was analyzed by ultra-performance liquid chromatography–tandem mass spectrometry (UPLC-MS/MS). The amount of remaining compound is calculated and compared to the initial amount of test compound (zero time point). Verapamil is used as a positive control, and samples prepared without cofactor NADPH are used as a negative control (0 and 60 min). The in vitro metabolic stability parameters (half-life value (t1/2) and intrinsic clearance value (Clint)) are calculated from the slope of the Ln of concentration remaining vs the time curve.

[3] = Plasma protein binding (rapid equilibrium dialysis); assay type: in vitro ADME; conditions: pH 7.4, mouse plasma, 2 h at 37 °C
Method: Plasma protein binding was performed with rapid equilibrium dialysis (RED) device inserts containing a dialysis membrane with a molecular weight cut-off of 8000 Daltons. Inserts were placed in the single-use RED plate without prior preparation.
The test compound at a concentration of 5 μM was added to mouse plasma and dialyzed against phosphate-buffered saline (PBS, pH 7.4) for 2 h at 37 °C. Propranolol hydrochloride was used as a positive control (high PPB), and fluconazole was used as negative control (low PPB). After dialysis, the drug concentration in the buffer and plasma compartments was quantified by liquid chromatography and tandem mass spectrometry (LC-MS/MS) analysis.

[4] = tested on: P. falciparum 3D7 parasites; test: Microscopy of synchronized P. falciparum cultures treated from ring stage (development and egress); assay type: cell-based; conditions: 20 nM
Method: Asexual blood-stage forms of P. falciparum strains 3D7 and Dd2 were maintained at 37 °C in an atmosphere of 1% O2, 5% CO2, and 94% N2 in human RBCs in RPMI 1640 medium containing AlbuMAX II (Thermo Fisher Scientific) and supplemented with 2 mM L-glutamine. The synchronization of parasite cultures was as described previously.[39] Briefly, this involved isolating mature schizont forms by centrifugation over cushions of 70% (v/v) isotonic Percoll (GE Healthcare, Life Sciences) and then allowing the parasites to undergo rupture in the presence of fresh RBCs for 2 h under gentle shaking conditions (100 rpm). Residual schizonts were then removed through a second Percoll separation, followed by treatment with 5% (w/v) sorbitol to finally obtain a highly synchronized preparation of newly invaded ring-stage parasites.
Growth stage progression and parasite morphology were also monitored by microscopic examination at selected time points using Giemsa-stained thin blood films.

[5] = tested on: maturation of the PMX substrate SUB1 (p54 to p47); test: Western blot of SUB1 maturation in treated schizonts; assay type: cell-based, P. falciparum; conditions: 20 nM, 44 h
Method: This phenotype is characteristic of the inhibition of PMX.
(§2) Synchronous parasite cultures were cultured from ring to schizont stage (∼44 h) in the presence of DMSO alone (0.04% v/v; control) or macrocycle compounds (20 nM final concentration). Schizonts were isolated by Percoll enrichment (still in the presence of the test compound), then either immediately frozen or further incubated in the absence of the drug but in the presence of C2 (1 μM) for 1 h at 37°C in the absence of added RBCs or for 3.5 h in the presence of added RBCs. The schizonts without added RBCs were then frozen too, and all schizont samples were then thawed into CHAPS–urea extraction buffer, subjected to sodium dodecyl sulfate-polyacrylamide gel electrophoresis (SDS-PAGE), and analyzed by Western blot, probing with antibodies against SUB1 or RAP1. For schizonts cultured in the presence of added RBCs, ring formation was assessed in two ways: cultures were examined microscopically by Giemsa stain of thin films and were also fixed with glutaraldehyde and processed for quantification of ring formation by flow cytometry as described above.

[6] = tested on: maturation of RAP1, substrate of PMIX; test: Western blot of RAP1 maturation in treated schizonts; assay type: cell-based, P. falciparum; conditions: 20 nM, 44 h
Source text: Figure 4 Macrocycle PMX inhibitors have no effect on intraerythrocytic parasite maturation but prevent egress and maturation of SUB1. […] Scale bar, 20 μm. (B) Simplified schematic of proteolytic maturation of the egress effector SUB1. Conversion of the precursor form to p54 is through autocatalytic removal[32] of the prodomain region (PD), whereas conversion of p54 to p47 is mediated by PMX.[15],[16],[33] (C) Left, Western blot analysis of P. falciparum 3D7 schizonts allowed to mature in the presence of the indicated macrocycle compounds (20 nM), showing defective SUB1 maturation in parasites treated with the indicated macrocycle compounds. Right, Western blot of the same extracts probed with a monoclonal antibody (mAb) specific to the rhoptry protein RAP1, which is a substrate for cleavage by the related P. falciparum protease PMIX. The compounds had no discernible effect on the maturation of RAP1. The results shown are typical of 3 independent experiments.
as §2

[7] = tested on: SUB1 p54 to p47 conversion (PMX activity); test: Washout assay, SUB1 maturation by Western blot; assay type: cell-based, P. falciparum; conditions: 20 nM ∼44 h, C2 1 μM for 1 h
Method: (§3) The schizont cultures lacking added RBCs were supplemented with compound C2, which blocks the discharge of exonemes, the parasite secretory organelles in which PMX and SUB1 are stored before egress. The schizonts without added RBCs were sampled for Western blot analysis, while the schizont cultures containing RBCs were examined by microscopy and flow cytometry after a further 4 h in culture to quantify schizont rupture and new ring formation.
as §2

P. falciparum schizonts = test: Washout assay, schizont rupture and new ring formation; assay type: cell-based; conditions: 20 nM ∼44 h, […] with added RBCs
Method: as §3, §2

[8] = tested on: P. falciparum Pf3D7^0087/N9; test: In vivo efficacy against P. falciparum in the TAD PfalcHuMouse model; conditions: three times a day for 4 days at 40 mg/kg, oral; 40 mg/kg
Method: Therapeutic efficacy studies were performed at TAD using a standardized humanized mouse model of P. falciparum malaria[31] with modifications.[34] […] The volume of injections was 1 and 0.7 mL for i.p. or i.v. inoculation, respectively.
The inoculum was obtained from peripheral blood of CO2-euthanized donor mice harboring 5–10% parasitemia.
Before drug administration, each infected mouse was randomly assigned to its corresponding treatment. […] The treatment was administered by oral gavage with 20G straight reusable feeding needles (Fine Science Tools GmbH) at 10 mL·kgbodyweight^–1 unless otherwise stated.
Parasitemia was measured in serial 2 μL of samples of tail blood by flow cytometry and expressed as the % of parasitized erythrocytes with respect to the total erythrocytes in circulation.
The clearance of parasitized erythrocytes from the peripheral blood of mice was assessed by measuring the parasite reduction ratio (PRR) calculated as the ratio between parasitemia at Day n + 2 divided by parasitemia at Day n for each individual of the study.
The parasiticidal effect of drugs in vivo was assessed by measuring the day of recrudescence (DoR) as described.[34] In short, DoR was defined as the day at which parasitemia after drug treatment reached the % parasitemia at treatment inception. Drug-treated mice were deemed cured if there was no detectable parasitemia 60 days after treatment.

[9] = recombinant PMX, read-out: PMX, nM (IC50)

recombinant P. falciparum PMX, sequence (Q8IAS0 222-573): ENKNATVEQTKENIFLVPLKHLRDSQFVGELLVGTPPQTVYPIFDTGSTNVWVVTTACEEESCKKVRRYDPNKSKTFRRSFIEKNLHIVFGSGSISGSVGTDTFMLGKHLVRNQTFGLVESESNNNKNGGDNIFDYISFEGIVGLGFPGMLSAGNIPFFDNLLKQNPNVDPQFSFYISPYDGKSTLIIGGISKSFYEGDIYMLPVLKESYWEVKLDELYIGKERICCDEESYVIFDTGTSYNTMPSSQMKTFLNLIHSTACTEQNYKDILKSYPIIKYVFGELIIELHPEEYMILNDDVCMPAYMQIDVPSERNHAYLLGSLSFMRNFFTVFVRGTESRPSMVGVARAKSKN
cathepsin D (CatD), sequence (P07339 65-412): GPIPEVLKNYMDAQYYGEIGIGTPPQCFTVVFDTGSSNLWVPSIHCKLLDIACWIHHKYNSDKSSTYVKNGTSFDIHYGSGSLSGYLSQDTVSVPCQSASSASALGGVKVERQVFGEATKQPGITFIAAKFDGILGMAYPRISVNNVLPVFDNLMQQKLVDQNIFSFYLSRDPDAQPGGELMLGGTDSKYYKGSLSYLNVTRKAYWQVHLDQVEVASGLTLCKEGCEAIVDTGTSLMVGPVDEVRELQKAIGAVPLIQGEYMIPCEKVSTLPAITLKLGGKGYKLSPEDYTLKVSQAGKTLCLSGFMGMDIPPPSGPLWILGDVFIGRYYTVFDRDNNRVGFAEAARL
BACE1, sequence (P56817 46-501): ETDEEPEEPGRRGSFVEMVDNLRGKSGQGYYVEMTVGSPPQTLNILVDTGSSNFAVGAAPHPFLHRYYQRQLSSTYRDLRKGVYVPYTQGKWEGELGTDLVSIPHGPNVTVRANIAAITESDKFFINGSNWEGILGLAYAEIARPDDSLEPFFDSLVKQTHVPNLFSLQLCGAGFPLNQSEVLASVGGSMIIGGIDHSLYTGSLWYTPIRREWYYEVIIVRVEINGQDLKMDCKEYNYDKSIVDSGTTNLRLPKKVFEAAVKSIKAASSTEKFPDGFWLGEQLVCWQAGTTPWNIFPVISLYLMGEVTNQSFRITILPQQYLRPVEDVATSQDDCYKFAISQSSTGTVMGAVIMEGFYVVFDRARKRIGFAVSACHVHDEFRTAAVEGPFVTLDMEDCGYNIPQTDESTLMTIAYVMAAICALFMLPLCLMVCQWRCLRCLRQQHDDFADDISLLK
PMIV, sequence (Q8IM16 122-449): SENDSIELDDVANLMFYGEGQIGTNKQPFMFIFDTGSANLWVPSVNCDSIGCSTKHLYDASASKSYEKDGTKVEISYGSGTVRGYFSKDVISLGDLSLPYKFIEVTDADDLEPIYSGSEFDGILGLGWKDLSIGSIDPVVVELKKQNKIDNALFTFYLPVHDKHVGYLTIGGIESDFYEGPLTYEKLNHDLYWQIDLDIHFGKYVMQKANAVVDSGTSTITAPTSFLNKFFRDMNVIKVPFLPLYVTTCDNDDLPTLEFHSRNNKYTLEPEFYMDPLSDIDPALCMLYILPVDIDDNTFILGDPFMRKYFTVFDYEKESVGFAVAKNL

## CCCN1CCCCOc2cccc(c2)C[C@@H]([C@H](O)CNC(C)(C)c2cccc(OC)c2)NC(=O)c2cccc(c2)C1=O [7a, (S)-4-((R)-1-Hydroxy-2-((2-(3-methoxyphenyl)propan-2-yl)amino)ethyl)-12-propyl-7-oxa-3,12-diaza-1,6(1,3)-dibenzenacyclotridecaphane-2,13-dione]
[1]; [9]
  IC50: 4.1 ± 0.3 nM
PMIV; read-out: PMIV, nM (IC50)
  IC50: 60 ± 3 nM
Cathepsin D (CatD)
  IC50: 270 ± 20 nM
BACE1
  IC50: 380 ± 20 nM
[2]
  half-life at 1 h, 5 μM: 8.67 min
  microsomal CLint at 1 h, 5 μM: 160 µL/min/mg
[3]
  fraction unbound at 2 h, 5 µM: 0.029
[4]; 44 h
  intraerythrocytic development of ring-stage parasites to schizont stage: Development of ring-stage parasites to the multinucleated schizont stage occurred similarly in all cultures
[4]; 44 h and extended incubation
  schizont rupture (egress) and appearance of new rings: schizont rupture and appearance of new rings did not occur
[5]
  maturation of SUB1 (p54 to p47): clear defect in maturation of the PMX substrate SUB1
[6]
  maturation of RAP (PMIX substrate): do not affect PMIX activity at these concentrations
[7]
  SUB1 p54 to p47 conversion after washout: efficient conversion of the accumulated SUB1 p54 intermediate to the p47 form
P. falciparum schizonts
  new ring formation after washout: allowed an efficient generation of new rings

## COc1cccc(C(C)(C)NC[C@@H](O)[C@@H]2Cc3cccc(c3)OCCCCN(CCN(C)C)C(=O)c3cccc(c3)C(=O)N2)c1 [7f, (S)-12-(2-(Dimethylamino)ethyl)-4-((R)-1-hydroxy-2-((2-(3-methoxyphenyl)propan-2-yl)amino)ethyl)-7-oxa-3,12-diaza-1,6(1,3)-dibenzenacyclotridecaphane-2,13-dione]
[1]
  IC50: 2.5 ± 0.2 nM
[1]; compared to analogue 7a
  reduction of PMX inhibitory potency: 4 fold
[1]; [9]
  IC50: 16.7 ± 1.5 nM
PMIV
  IC50: 40 nM
PMIV; read-out: PMIV, nM (IC50)
  IC50: 1730 ± 90 nM
Cathepsin D (CatD)
  IC50: 6800 ± 340 nM
BACE1
  IC50: 52400 ± 1600 nM
[2]
  half-life at 5 μM: > 120 min
[3]
  fraction unbound at 2 h, 5 µM: 0.0695
[8]
  effect on parasite burden: only a weak effect on parasite burden; also recorded: measurable reduction in parasitemia

## CCCN1CCCCc2cccc(c2)C[C@@H]([C@H](O)CNC(C)(C)c2cccc(OC)c2)NC(=O)c2cccc(c2)C1=O [7j, (S)-4-((R)-1-Hydroxy-2-((2-(3-methoxyphenyl)propan-2-yl)amino)ethyl)-11-propyl-3,11-diaza-1,6(1,3)-dibenzenacyclododecaphane-2,12-dione]
[1]; Table 3, read-out: PMX, nM (as listed in Table 3)
  IC50: 3.8 ± 0.69 nM
[1]; [9]
  IC50: 3.8 ± 0.69 nM
PMIV; Table 3, read-out: PMIV, nM (as listed in Table 3)
  IC50: 74 ± 4 nM
PMIV; read-out: PMIV, nM (IC50)
  IC50: 74 ± 4 nM
Cathepsin D (CatD)
  IC50: 1370 ± 70 nM
BACE1
  IC50: 3020 ± 150 nM
[2]
  half-life at 1 h, 5 μM: 14.4 min
  microsomal CLint at 1 h, 5 μM: 96.4 µL/min/mg
[3]
  fraction unbound at 2 h, 5 µM: 0.0067
[5]
  maturation of SUB1 (p54 to p47): clear defect in maturation of the PMX substrate SUB1
[6]
  maturation of RAP (PMIX substrate): do not affect PMIX activity at these concentrations
[7]
  SUB1 p54 to p47 conversion after washout: efficient conversion of the accumulated SUB1 p54 intermediate to the p47 form
P. falciparum schizonts
  new ring formation after washout: allowed an efficient generation of new rings
